Key:
Type in all cases: cell-based, rat
[1] = test system: cortical neurons; assay: Glucose oxidase (GOX)-mediated cellular injury, Alamar blue cell viability
Experimental: To better assess the neuroprotective activity of curcumin, cell viability was determined for cortical neurons treated with 25 μM curcumin for 12 h followed by incubation for 2 h in the presence of glucose oxidase (100 mU/ml). This oxidant system generates hydrogen peroxide at a constant rate and is known to promote cellular injury in vitro^14. After treatment with glucose oxidase, cells were washed and exposed to complete medium containing 1% Alamar blue for 5 h according to manufacturers' instruction (Serotec, UK), in order to assess cell viability. After the 2 h incubation period, optical density in the medium of each well was measured using a plate reader (Molecular Devices; Crawley, UK). The assay is based on detection of metabolic activity of living cells using a redox indicator, which changes from oxidized (blue) to reduced (red) form. The intensity of the red color is proportional to the viability of cells, which is calculated as a difference in absorbance between 570 nm and 600 nm and expressed as a percentage of control. […] However, exposure of cells for 24 h to curcumin 25 μM reduced glucose oxidase-mediated damage and restored cell viability to 70% of control.
An inhibitor of HO-1 activity may be used to determine whether or not the effects of the polyphenolic compounds or analogs thereof are induced through the heme oxygenase signaling pathway. To understand the relevance of the induction of the stress protein HO-1 on the neuroprotective effects afforded by curcumin we treated cortical neuron exposed to β-amyloid with curcumin ([…]) alone or in the presence of tinprotoporphirine IX (SnPP) 40 μM, a specific inhibitor of HO-1 activity. The same treatment was performed in cortical neurons exposed to GOX-induced cellular damage.

[2] = test system: hsp70; assay: hsp70 protein expression, Western blot, cortical neurons
Experimental: HO-1 and hsp70 protein levels were assessed by Western immunoblot technique using a polyclonal rabbit anti-HO-1 antibody (Stressgen; Victoria, Canada), and a polyclonal rabbit hsp70 antibody. Briefly, an equal amount of proteins (30 μg) for each sample was separated by SDS-polyacrylamide gel electrophoresis and transferred to nitrocellulose membranes, and the non-specific antibodies were blocked with 3% non-fat dried milk in PBS. Membranes were then probed with a polyclonal rabbit anti HO-1 antibody (Stressgen) (1:1000 dilution in Tris-buffered saline, pH 7,4) or with a monoclonal rabbit anti-Hsp72 antibody (Amersham Pharmacia Biotechnology) (1:1000 dilution in Tris-buffered saline, pH 7,4), that recognizes only the Hsp 70 inducible isoform. Blots were then visualized using an amplified alkaline phosphate kit from Sigma.

[3] = test system: heme oxygenase; assay: Heme oxygenase activity assay in cortical neurons
Experimental: The ability of curcumin to interact with the heme oxygenase (HO) pathway in primary cortical neurons was tested. Cells were exposed to various concentrations of curcumin (1-100 μM) and heme oxygenase activity. HO-1 mRNA and protein expression were determined at different times after treatment. N-acetyl cysteine (NAC; 1 mM), a precursor of glutathione and a sulphydril donor with potent anti-oxidant properties, was also used to examine whether changes in heme oxygenase activity by curcumin are mediated by pro-oxidant mechanisms. Heme oxygenase activity assays were performed using a modified methodology previously described by […], et al.^15 Cells were washed with PBS, scraped off their plates, separated by centrifugation, and resuspended in a solution containing 100 mM PBS and 2mM MgCl2, freeze/thawed three times, and finally sonicated. The supernatant was added to a reaction mixture containing nicotinamide adenine dinucleotide phosphate (NADPH) (0.8 mM), glucose 6-phosphate (2 mM), glucose-6-phosphate dehydrogenase (0.2 units), 3 mg of rat liver cytosol prepared from a 105,000×g supernatant fraction as a source of biliverdin reductase, potassium phosphate buffer (PBS, 100 mM, pH 7.4), MgCl2 (0.2 mM), and hemin (20 μM). The reaction was conducted at 37° C. in the dark for 1 h and terminated by the addition of 1 ml of chloroform. The amount of extracted bilirubin was calculated by the difference in absorbance between 464 nm and 530 nm (ε=40 mM^-1 cm^-1). Heme oxygenase activity was expressed as picomoles of bilirubin/mg of cell protein/h. The total protein content of confluent cells was determined using a Bio-Rad DC protein assay (Bio-Rad; Herts, UK) by comparison with a standard curve obtained with bovine serum albumin.

[4] = test system: HO-1 mRNA; assay: HO-1 mRNA expression, semi-quantitative RT-PCR, cortical neurons
Experimental: A semi-quantitative RT-PCR was performed to investigate the activity of curcumin on HO-1 mRNA expression, using specific HO-1 primers (FIG. 8) that generated a 123 bp product. […] The HO-2 primers generated a 331-bp PCR product. […] In order to test the effects of polyphenolic compounds, or analogs thereof, on heme oxygenase activity, curcumin and CAPE were added to cortical neurons for analysis. Heme oxygenase activities resulting from curcumin and CAPE treatment are shown in FIGS. 7A and 9A, respectively. Neuroprotective protein expression is observed in FIGS. 7B-C and 9B. The activity of curcumin on HO-1 mRNA expression may be measured to ensure that heme oxygenase activity correlates with mRNA expression (FIG. 8). Semi-quantitative reverse transcriptase-polymerase chain reaction using HO-1 and HO-2 (control) forward and reverse primers are as follows: […]

## COc1cc(C=CC(=O)CC(=O)C=Cc2ccc(O)c(OC)c2)ccc1O [curcumin, 1,7-bis[4-Hydroxy-3-methoxyphenyl]-1,6-heptadiene-3,5-dione]
[1]; 25 μM, then glucose oxidase 100 mU/ml for 2 h
  cell viability after glucose oxidase: 70 % of control
[1]; curcumin alone
  cell viability, GOX-induced cellular damage (in words): able to overcome the apoptotic effects of GOX alone
[1]; curcumin plus SnPP 40 μM
  cell viability, GOX-induced cellular damage in the presence of SnPP: only partially in combination with SnPP
[2]
  hsp70 protein expression: induced hsp70 protein expression
[3]; 25 μM, 6h
  maximal heme oxygenase activity, increase over control: 10 fold
[3]; 50 μM
  heme oxygenase activity: gradually decreased to those of control values
[3]; 1-50 μM, 6h
  heme oxygenase activity: concentration-dependent increase in heme oxygenase activity
[3]; 24h exposure
  dose-dependent induction of heme oxygenase activity: maintained after 24h exposure
[4]
  HO-1 mRNA expression: dose-dependent over-expression of HO-1 mRNA

— patent US20040167217A1, “Neuroprotective effects of polyphenolic compounds” (priority 2003, published 2004)
